Reference: patent publication US20230114728A1 (Venatorx Pharmaceuticals, Inc., priority 2019, published 2023)
Values after ≈ are worked out from the molar mass of the structure shown.

Experiments:
E. coli AG100A = test: Broth microdilution MIC in CAMHB; type: cell-based; conditions: Escherichia coli, read-out: Minimum Inhibitory Concentration, E. coli AG100A
Outline: (§1)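 Hyper-permeable or efflux-deficient strains serve to probe outer-membrane penetration. Growth inhibition is scored visually after 16-20 h at 37° C in CAMHB, starting from 2-8×10^5 CFU/mL.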

[1] = tested on: K. pneumoniae 848844 producing SHV-11 and KPC-2; test: Broth microdilution MIC in CAMHB; type: cell-based; conditions: Klebsiella pneumoniae, read-out: Minimum Inhibitory Concentration, K. pneumoniae 848844
Outline: as §1

[2] = tested on: P. aeruginosa (ΔmexAB-oprM); test: Broth microdilution MIC in CAMHB; type: cell-based; conditions: Pseudomonas aeruginosa, read-out: Minimum Inhibitory Concentration, P. aeruginosa ΔmexAB-OprM
Outline: as §1

P. aeruginosa ATCC 27853 = test: Broth microdilution MIC in CAMHB; type: cell-based; conditions: Pseudomonas aeruginosa, ATCC27853; MHB; read-out: Minimum Inhibitory Concentration, P. aeruginosa ATCC 27853
Outline: as §1

[3] = tested on: K. pneumoniae UMM producing SHV-5 and KPC-2; test: Broth microdilution MIC in CAMHB; type: cell-based; conditions: Klebsiella pneumoniae, read-out: Minimum Inhibitory Concentration, K. pneumoniae UMM
Outline: as §1

P. aeruginosa ATCC 35151 = test: Broth microdilution MIC in CAMHB; type: cell-based; conditions: Pseudomonas aeruginosa, ATCC35151; MHB; hyper-permeable strain; read-out: Minimum Inhibitory Concentration, P. aeruginosa ATCC 35151
Outline: as §1

E. coli ATCC 25922 = test: Broth microdilution MIC in CAMHB; type: cell-based; conditions: Escherichia coli, ATCC25922; E. coli ATCC 25922; MHB; read-out: Minimum Inhibitory Concentration, E. coli 25922
Outline: as §1

P. aeruginosa PBP3 = target: T1, P. aeruginosa PBP3 (Pseudomonas aeruginosa, UniProt G3XD46); test: Bocillin-FL fluorescence polarization competition binding assay, P. aeruginosa PBP3; conditions: fluorescence polarization competition binding assay using Bocillin-FL
T1 construct: made in house
Outline: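 Inhibitor competition with Bocillin-FL for P. aeruginosa PBP3 was followed by fluorescence polarization on a Cytation3 (BioTek) reader, using g-factor 0.96, 490 nm excitation and 520 nm emission. The enzyme was at 0.75 μM and the probe at 0.1 μM in Hepes/NaCl/glycerol buffer, 80 μl per well. FP was recorded immediately after probe addition for up to 60 minutes. Potency was expressed as EC50, the concentration that reduces bound probe by 50%.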

T1 sequence (G3XD46 whole entry): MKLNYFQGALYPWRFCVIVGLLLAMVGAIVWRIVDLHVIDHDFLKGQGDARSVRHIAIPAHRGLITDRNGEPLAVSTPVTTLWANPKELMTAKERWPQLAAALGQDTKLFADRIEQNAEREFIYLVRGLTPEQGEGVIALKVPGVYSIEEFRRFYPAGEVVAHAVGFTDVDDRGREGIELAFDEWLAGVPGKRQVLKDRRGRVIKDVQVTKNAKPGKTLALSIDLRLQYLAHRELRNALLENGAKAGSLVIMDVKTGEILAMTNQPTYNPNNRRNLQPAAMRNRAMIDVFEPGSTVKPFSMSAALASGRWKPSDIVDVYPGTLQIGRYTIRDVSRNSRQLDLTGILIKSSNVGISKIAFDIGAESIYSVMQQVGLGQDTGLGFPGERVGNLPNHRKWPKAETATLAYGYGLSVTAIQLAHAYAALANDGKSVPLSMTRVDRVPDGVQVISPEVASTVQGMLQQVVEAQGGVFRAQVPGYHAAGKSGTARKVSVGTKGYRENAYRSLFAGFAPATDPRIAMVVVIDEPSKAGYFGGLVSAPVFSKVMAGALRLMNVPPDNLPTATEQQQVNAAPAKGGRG

Structure (SMILES) | MIC (E. coli AG100A) [µg/mL] | MIC [1] [µg/mL] | MIC [2] [µg/mL] | MIC (P. aeruginosa ATCC 27853) [µg/mL] | MIC [3] [µg/mL] | MIC (P. aeruginosa ATCC 35151) [µg/mL] | MIC (E. coli ATCC 25922) [µg/mL] | P. aeruginosa PBP3 Potency (P. aeruginosa PBP3)
CCN1CCN(C(=O)NC(C(=O)N[C@H]2Cc3cccc(C(=O)O)c3OB2O)c2c(F)cc(C(=O)O)cc2F)C(=O)C1=O (stereo partly drawn) [Example 157, (3R)-3-(2-(4-carboxy-2,6-difluorophenyl)-2-(4-ethyl-2,3-dioxopiperazine-1-carboxamido)acetamido)-2-hydroxy-3,4-dihydro-2H-benzo[e][1,2]oxaborinine-8-carboxylic acid] | 8 to 16 (≈ 13.6 to 27.2 µM) | > 128 | 8 to 16 (≈ 13.6 to 27.2 µM) | > 128 | 32 to 64 (≈ 54.4 to 109 µM) | 0.5 to 1 (≈ 0.85 to 1.7 µM) | 32 to 64 (≈ 54.4 to 109 µM) | D (D represents a potency <10 μM)
CCN1CCN(C(=O)NC(C(=O)N[C@H]2Cc3cccc(C(=O)O)c3OB2O)c2cc(F)c(O)c(F)c2)C(=O)C1=O (stereo partly drawn) [Example 160, (3R)-3-(2-(3,5-difluoro-4-hydroxyphenyl)-2-(4-ethyl-2,3-dioxopiperazine-1-carboxamido)acetamido)-2-hydroxy-3,4-dihydro-2H-benzo[e][1,2]oxaborinine-8-carboxylic acid] | 2 to 4 (≈ 3.57 to 7.14 µM) | 32 to 64 (≈ 57.1 to 114 µM) | 2 to 4 (≈ 3.57 to 7.14 µM) | > 128 | 32 to 64 (≈ 57.1 to 114 µM) | < 0.25 | 32 to 64 (≈ 57.1 to 114 µM) | D (D represents a potency <10 μM)
NCCN1CCN(C(=O)NC(C(=O)N[C@H]2Cc3cccc(C(=O)O)c3OB2O)c2cc(F)c(O)c(Cl)c2)C(=O)C1=O (stereo partly drawn) [Example 163, (3R)-3-(2-(4-(2-aminoethyl)-2,3-dioxopiperazine-1-carboxamido)-2-(3-chloro-5-fluoro-4-hydroxyphenyl)acetamido)-2-hydroxy-3,4-dihydro-2H-benzo[e][1,2]oxaborinine-8-carboxylic acid] | 2 to 4 (≈ 3.38 to 6.76 µM) | > 128 | 2 to 4 (≈ 3.38 to 6.76 µM) | 32 to 64 (≈ 54.1 to 108 µM) | 32 to 64 (≈ 54.1 to 108 µM) | < 0.25 | 32 to 64 (≈ 54.1 to 108 µM) | D (D represents a potency <10 μM)
CCN1CCN(C(=O)NC(C(=O)N[C@H]2Cc3cccc(C(=O)O)c3OB2O)c2cc(F)c(O)c(Cl)c2)C(=O)C1=O (stereo partly drawn) [Example 164, (3R)-3-(2-(3-chloro-5-fluoro-4-hydroxyphenyl)-2-(4-ethyl-2,3-dioxopiperazine-1-carboxamido)acetamido)-2-hydroxy-3,4-dihydro-2H-benzo[e][1,2]oxaborinine-8-carboxylic acid] | 2 to 4 (≈ 3.47 to 6.94 µM) | > 128 | 2 to 4 (≈ 3.47 to 6.94 µM) | > 128 | 32 to 64 (≈ 55.5 to 111 µM) | < 0.25 | 32 to 64 (≈ 55.5 to 111 µM) | D (D represents a potency <10 μM)
CCN1CCN(C(=O)NC(C(=O)N[C@H]2Cc3cccc(C(=O)O)c3OB2O)c2cc(Cl)c(O)c(Cl)c2)C(=O)C1=O (stereo partly drawn) [Example 171, (3R)-3-(2-(3,5-dichloro-4-hydroxyphenyl)-2-(4-ethyl-2,3-dioxopiperazine-1-carboxamido)acetamido)-2-hydroxy-3,4-dihydro-2H-benzo[e][1,2]oxaborinine-8-carboxylic acid] | 2 to 4 (≈ 3.37 to 6.74 µM) | > 128 | 2 to 4 (≈ 3.37 to 6.74 µM) | > 128 | 32 to 64 (≈ 53.9 to 108 µM) | < 0.25 | 32 to 64 (≈ 53.9 to 108 µM) | D (D represents a potency <10 μM)
CCN1CCN(C(=O)NC(C(=O)N[C@H]2Cc3cccc(C(=O)O)c3OB2O)c2cc(F)c(O)c(F)c2F)C(=O)C1=O (stereo partly drawn) [Example 172, (3R)-3-(2-(4-ethyl-2,3-dioxopiperazine-1-carboxamido)-2-(2,3,5-trifluoro-4-hydroxyphenyl)acetamido)-2-hydroxy-3,4-dihydro-2H-benzo[e][1,2]oxaborinine-8-carboxylic acid] | 2 to 4 (≈ 3.46 to 6.92 µM) | > 128 | 2 to 4 (≈ 3.46 to 6.92 µM) | > 128 | 32 to 64 (≈ 55.3 to 111 µM) | < 0.25 | 32 to 64 (≈ 55.3 to 111 µM) | D (D represents a potency <10 μM)
